Structures are written as SMILES.

The assay addresses T1, hexokinase II (HKII) (Homo sapiens, UniProt P52789).
T1 construct: gene HK2; recombinant HKII expressed in E. coli, first 16 aa from the N-terminal removed
T1 sequence (P52789 17-917): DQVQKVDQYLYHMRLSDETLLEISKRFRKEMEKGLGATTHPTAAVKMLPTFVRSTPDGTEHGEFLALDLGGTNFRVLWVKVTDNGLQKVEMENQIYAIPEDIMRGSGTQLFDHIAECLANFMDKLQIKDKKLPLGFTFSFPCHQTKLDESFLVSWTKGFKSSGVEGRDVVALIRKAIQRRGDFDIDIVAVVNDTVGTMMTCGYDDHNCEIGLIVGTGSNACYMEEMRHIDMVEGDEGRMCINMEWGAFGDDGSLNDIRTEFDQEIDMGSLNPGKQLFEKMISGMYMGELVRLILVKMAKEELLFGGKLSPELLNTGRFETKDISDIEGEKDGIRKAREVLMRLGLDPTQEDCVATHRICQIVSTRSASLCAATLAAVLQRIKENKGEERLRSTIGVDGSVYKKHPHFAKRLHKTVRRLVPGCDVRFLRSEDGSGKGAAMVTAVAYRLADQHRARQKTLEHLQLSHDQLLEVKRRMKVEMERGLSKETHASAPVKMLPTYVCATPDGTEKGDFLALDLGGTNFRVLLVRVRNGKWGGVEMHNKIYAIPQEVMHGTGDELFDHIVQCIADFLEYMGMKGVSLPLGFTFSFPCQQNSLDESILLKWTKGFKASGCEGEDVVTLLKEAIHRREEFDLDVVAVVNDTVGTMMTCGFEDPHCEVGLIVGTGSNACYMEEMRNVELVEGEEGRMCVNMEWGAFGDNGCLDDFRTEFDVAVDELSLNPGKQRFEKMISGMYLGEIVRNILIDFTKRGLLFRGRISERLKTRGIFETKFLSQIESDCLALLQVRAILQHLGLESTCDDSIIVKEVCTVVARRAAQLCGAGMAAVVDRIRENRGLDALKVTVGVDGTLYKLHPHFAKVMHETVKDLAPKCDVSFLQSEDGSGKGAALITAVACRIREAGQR
Put plainly: […] NMR CPMG transverse relaxation titration. It counts as binding. The conditions noted are these: read-out: Kα [mol m^-3].

For `OC[C@H]1OC(O)C(F)(F)[C@@H](O)[C@@H]1O` (mixture of isomers) [2,2-diFG, 2-deoxy-2,2-difluoro-D-glucopyranose], the Kd stood at 960 ± 200 µM.

These data come from article PMC11504489, “Potent Biological Activity of Fluorinated Derivatives of 2-Deoxy-D-Glucose in a Glioblastoma Model” (Biomedicines, 2024).
